Patent publication US12187705B2, “Heteroaryl-triazole and heteroaryl-tetrazole compounds as pesticides” (Bayer Aktiengesellschaft, priority 2018, dated 2025)

Tests used:
Assay type in all cases: in vivo
Rhipicephalus sanguineus = Rhipicephalus sanguineus in-vitro contact test with adult brown dog ticks; settings: 5 μg/cm^2 (=500 g/ha), after 48 hours
Experimental: Rhipicephalus sanguineus—In-Vitro Contact Test with Adult Brown Dog Ticks
9 mg compound is solved in 1 ml acetone and diluted with acetone to the desired concentration. 250 μl of the test solution is filled in 25 ml glass test tubes and homogeneously distributed on the inner walls by rotation and tilting on a shaking device (2 h at 30 rpm). With a compound concentration of 900 ppm, an inner surface of 44.7 cm^2 and a homogeneous distribution, a dose of 5 μg/cm^2 is achieved.
After the solvent has evaporated, each test tube is filled with 5-10 adult brown dog ticks (Rhipicephalus sanguineus), closed with a perforated lid and incubated in a lying position at room temperature and relative humidity. After 48 hours efficacy is determined. The ticks are patted on the ground of the tubes and are incubated on a heating plate at 45-50° C. for at most 5 minutes. Immotile or uncoordinated moving ticks, which are not able to escape the heat by climbing upwards, are marked as dead or moribund.
An efficacy of 100% means all ticks are dead or moribund; 0% means no ticks are dead or moribund.

[1] = system: cattle ticks (Boophilus microplus) strane Parhurst, SP-resistant; experiment: Boophilus microplus dip test; settings: 100 ppm, egg deposition after 7 days
Experimental: Boophilus microplus—Dip Test
Test animal: cattle ticks (Boophilus microplus) strane Parhurst, SP-resistant
Solvent: dimethyl sulfoxide
To produce a suitable preparation of active compound, 10 mg of active compound are dissolved in 0.5 ml solvent, and the concentrate is diluted with water to the desired concentration.
This compound solution is pipetted into tubes. 8-10 engorged, adult, female cattle ticks (Boophilus microplus) are placed in perforated tubes. These tubes are immersed in the aqueous compound solution until the ticks are completely moistened. After the liquid has drained off, the ticks are transferred to a filter paper in a plastic tray and stored in a climate chamber.
After 7 days egg deposition of fertile eggs is monitored. Eggs where fertility is not visible are stored in a climate chamber till hatching after about 42 days. An efficacy of 100% means all eggs are infertile; 0% means all eggs are fertile.

Boophilus microplus = Boophilus microplus injection test; settings: 20 μg/animal, egg deposition after 7 days; for pest or weed control at 0.02 mg: Rhipicephalus microplus, 168 h, read-out: efficacy (infertile eggs)
Summary of the method: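 Engorged adult female ticks, five per dose, received 1 μl of compound in DMSO injected into the abdomen and were kept in a climate chamber. Fertile egg deposition was checked after 7 days, with eggs of unclear fertility held until hatching at about 42 days. Efficacy 100% = all eggs infertile, 0% = all fertile.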

Ctenocephalides felis [2] = experiment: Ctenocephalides felis in-vitro contact test adult cat flea; settings: 5 μg/cm^2 (=500 g/ha), after 48 hours; for pest or weed control at 5 µg/cm2, 5 µg/cm2: Ctenocephalides felis, read-out: efficacy (fleas dead or moribund)
Summary of the method: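 Compound in acetone was coated on glass tube walls, giving 5 μg/cm^2 at 900 ppm. 5-10 adult cat fleas were held at room temperature for 48 h, then heat-challenged at 45-50° C. Fleas immotile or uncoordinated were scored dead/moribund, expressed as % efficacy.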

Diabrotica balteata = Diabrotica balteata spray test; settings: 160 μg/well, wheat seeds, after 7 days
Summary of the method: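 Wheat seeds germinated 1 day on agar were sprayed with compound diluted in water with 1000 ppm emulsifier, then infested with 10-20 Diabrotica balteata larvae. Efficacy in % scored after 7 days: 100% = seedlings grown as untreated, uninfected control; 0% = no seedlings grown.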

[3] = system: Aedes aegypti strain MONHEIM; experiment: Aedes aegypti test (AEDSAE surface treatment & contact assay); settings: 24 hours after contact, read-out: efficacy (mortality); for mortality at 4 mg/m2: surface concentration 4 mg/m^2, 30 minutes exposure; for mortality at 20 mg/m2: surface concentration 20 mg/m^2, 30 minutes exposure
Summary of the method: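 Compound dissolved in acetone (2 mg/ml) with 2000 ppm rapeseed oil methyl ester and dried onto a glazed tile. Adult mosquitoes held on the treated surface for 30 minutes exposure. Percent mortality scored 24 hours after contact.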

Nezara viridula = Nezara viridula spray test; settings: in Hordeum vulgare, 96 h
Summary of the method: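 Barley plants infested with stink bug larvae were sprayed with compound diluted in water containing 1000 ppm emulsifier. Mortality (%) was scored after 4 days, 100% meaning all bugs killed.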

[4] = system: Culex quinquefasciatus strain P00; experiment: Culex quinquefasciatus test (CULXFA surface treatment & contact assay); settings: 24 hours after contact, read-out: efficacy (mortality); for mortality at 4 mg/m2: surface concentration 4 mg/m^2, 30 minutes exposure; for mortality at 20 mg/m2: surface concentration 20 mg/m^2, 30 minutes exposure
Summary of the method: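 Compound dissolved in acetone (2 mg/ml) with 2000 ppm rapeseed oil methyl ester, applied to glazed tile and dried. Adult strain P00 mosquitoes exposed to the surface for 30 minutes. Percent mortality scored 24 hours after contact.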

Myzus persicae [5] = experiment: Myzus persicae oral test; settings: 120 h
Summary of the method: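 Feeding test: compound diluted in water was combined with IPL41 insect medium (33%+15% sugar) under a parafilm seal. A mixed population of green peach aphids fed through the membrane. Mortality (%) was scored after 5 days.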

Ctenocephalides felis [6] = experiment: Ctenocephalides felis oral test; settings: for mortality at 100 ppm: Ctenocephalides felis, in Bos taurus, po, 48 h
Summary of the method: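 About 20 adult unfed fleas fed through parafilm on cattle blood containing compound (DMSO concentrate diluted in blood); blood held at 37° C., fleas at room temperature. Mortality in % scored after 2 days (100% = all killed).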

Spodoptera frugiperda = Spodoptera frugiperda spray test; settings: in Zea mays, 168 h
Summary of the method: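 Compound mixed with solvent, diluted with 1000 ppm emulsifier water to test concentrations; sprayed on maize leaf pieces; dried; larvae added; mortality (%) scored at 7 d.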

Myzus persicae [7] = experiment: Myzus persicae spray test; settings: in Brassica rapa, foliar, 120 h
Summary of the method: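 Chinese cabbage leaf disks infested with all aphid instars were sprayed with compound diluted in water containing emulsifier (1000 ppm). Mortality (%) was scored after 5 days, 100% meaning all aphids killed.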

Nilaparvata lugens = Nilaparvata lugens spray test; settings: Nilaparvata lugens, in Oryza sativa, 96 h
Summary of the method: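 Rice plants sprayed with compound diluted in water containing 1000 ppm emulsifier, then infested with brown planthopper. Mortality (%) scored after 4 days, 100% meaning all insects killed.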

Tetranychus urticae = Tetranychus urticae spray test OP-resistant; settings: 500 g/ha, French bean leaf disks, after 6 days
Experimental: Tetranychus urticae—Spray Test OP-Resistant
To produce a suitable preparation of active compound, 1 part by weight of active compound is mixed with the stated amount of solvents and is diluted with water, containing an emulsifier concentration of 1000 ppm, to the desired concentration. Further test concentrations are prepared by dilution with emulsifier containing water.
French bean (Phaseolus vulgaris) leaf disks infected with all instars of the two spotted spidermite (Tetranychus urticae), are sprayed with a preparation of the active ingredient of the desired concentration.
After 6 days mortality in % is determined. 100% means all spider mites have been killed and 0% means none of the spider mites have been killed.

| SMILES | efficacy (infertile eggs) [1] | mortality at 20 mg/m2 [3] | mortality at 500 g/ha (Nezara viridula) | pest or weed control at 0.02 mg (Boophilus microplus) | mortality at 20 mg/m2 [4] | mortality at 4 ppm (Myzus persicae [5]) | pest or weed control at 5 µg/cm2, 5 µg/cm2 (Ctenocephalides felis [2]) | mortality at 100 ppm (Ctenocephalides felis [6]) | mortality at 500 g/ha (Spodoptera frugiperda) | other results |
| --- | --- | --- | --- | --- | --- | --- | --- | --- | --- | --- |
| CC(NC(=O)c1cc(Cl)cc(S(C)(=O)=O)c1)c1ncnn1-c1ncc(F)cn1 (stereo not drawn) [Example I-036] | 90% |  |  |  |  |  |  |  |  | efficacy (ticks dead or moribund) (Rhipicephalus sanguineus): 80%; efficacy (infertile eggs) (Boophilus microplus): 100%; efficacy (fleas dead or moribund) (Ctenocephalides felis [2]): 100%; efficacy (seedlings grown) (Diabrotica balteata): 100% |
| C[C@@H](NC(=O)c1cc(Cl)cc(S(C)(=O)=O)c1)c1ncnn1-c1ncc(Cl)cn1 [Example I-038] | 100% | 90 to 100% | 100% | 100% | 80 to 100% | 100% | 100% | 100% | 100% | mortality at 4 mg/m2 [3]: 80 to 100%; mortality at 4 mg/m2 [4]: 80 to 100% |
| CCS(=O)(=O)c1cc(Cl)cc(C(=O)N[C@@H](C)c2ncnn2-c2ncccn2)c1 [Example I-044, 3-chloro-5-(ethylsulfonyl)-N-{(1S)-1-[1-(pyrimidin-2-yl)-1H-1,2,4-triazol-5-yl]ethyl}benzamide] | 100% | 90 to 100% | 100% | 100% | 80 to 100% | 100% | 100% | 100% | 83% | mortality at 4 mg/m2 [3]: 80 to 100%; mortality at 4 mg/m2 [4]: 80 to 100%; mortality at 500 g/ha (Myzus persicae [7]): 100%; pest or weed control at 160 µg/disc, 160 µg/well (Diabrotica balteata; Diabrotica balteata, 168 h, read-out: efficacy (seedlings grown)): 100%; mortality at 500 g/ha (Nilaparvata lugens): 100% |
| CC(C)Sc1cc(Cl)cc(C(=O)N[C@@H](C)c2ncnn2-c2ncccn2)c1 [Example I-046, 3-chloro-5-(isopropylsulfanyl)-N-{(1S)-1-[1-(pyrimidin-2-yl)-1H-1,2,4-triazol-5-yl]ethyl}benzamide] | 100% | 90 to 100% | 100% | 100% | 80 to 100% | 100% | 100% | 100% | 100% | mortality at 500 g/ha (Myzus persicae [7]): 100%; mortality at 500 g/ha (Nilaparvata lugens): 90% |
| CC(NC(=O)c1cc(Cl)cc(C2CC2)c1)c1ncnn1-c1ncccn1 (stereo not drawn) [Example I-050] | 90% |  |  |  |  |  |  |  |  | efficacy (infertile eggs) (Boophilus microplus): 100%; efficacy (fleas dead or moribund) (Ctenocephalides felis [2]): 100%; efficacy (seedlings grown) (Diabrotica balteata): 80% |
| CC(NC(=O)c1ccc(S(=O)(=O)C(F)(F)F)cc1)c1ncnn1-c1ncccn1 (stereo not drawn) [Example I-056] |  |  |  |  |  |  |  |  |  | mortality (Tetranychus urticae): 90%; mortality (Ctenocephalides felis [6]; 100 ppm in cattle blood, after 2 days): 90% |
| CC(NC(=O)c1cncc(-c2ccc(Cl)cc2)c1)c1ncnn1-c1ncccn1 (stereo not drawn) [Example I-112] |  |  |  |  |  |  |  |  |  | mortality (Tetranychus urticae): 90% |
